In patent publication US20240041991A1, “STABLE LIQUID DISPERSINB COMPOSITIONS” (KANE BIOTECH INC., priority 2020, published 2024):
Like-named read-outs stand apart in the source and are kept apart here. Marks after values point to notes of the source that are not given here.

Columns and labels:
DispersinB [1] = type: biochemical, Aggregatibacter actinomycetemcomitans; details: 50 mM citrate buffer pH 5.9; salt concentration as in label; control with no salts = 100%
Text: Activity of the control sample with no salts was considered 100%.

DispersinB [2] = assay: Effect of buffer and pH on DispersinB enzymatic activity (β-N-Acetylglucosaminidase assay kit); type: biochemical, Aggregatibacter actinomycetemcomitans; details: buffer strength 100 mM, 100 mM NaCl, citrate pH 5.9 = 100%
Method: Lyophilized DispersinB powder was dissolved in selected buffers (citrate, phosphate) of defined pH (5.5 -7.5). The DispersinB concentration was adjusted to 100 μg/ml. Salt concentration was maintained at 100 mM sodium chloride. […] The enzymatic activity was presented as percentages in comparison to enzymatic activity of DispersinB in 100 mM Citrate buffer, 100 mM NaCl, pH 5.9, which was considered 100%.
Enzymatic activity in citrate buffer with a pH of 5.9 was considered 100%. * indicates statistically significant (p<0.05) values in paired two tailed t-test, each treatment was compared with enzymatic activity of DispersinB in corresponding buffer of pH 5.9.

DispersinB [3] = system: DispersinB
Method: DispersinB enzyme (100 μg/ml) solutions in 50 mM citrate buffer and phosphate buffer (pH 5.9), with 100 mM NaCl containing EDTA (0.5%-10%) were tested for DispersinB enzymatic activity following β-N-Acetylglucosaminidase assay.

DispersinB [4] = type: biochemical, Aggregatibacter actinomycetemcomitans; details: for % enzymatic activity of DispersinB (Mean): polyol % as in label
Method: Samples from each formula was incubated at 3 different temperatures (42° C., 52° C. and 62° C.) for 3 hours. Following a 3 hour incubation, the samples were brought to room temperature for enzymatic activity assay.
Two-tailed paired T-test was performed by to compare each polyol containing treatment with the treatment devoid of polyol. Treatment with probability values (p) less than 5% (0.05) was considered significant.

Molecule: N.N.O=S(=O)(O)O [100 mM (NH4)2SO4, (NH4)2SO4]
- % enzymatic activity of DispersinB (Mean) (DispersinB [1]): 91%

Molecule: [Cl-].[K+] [100 mM KCl, KCl]
- % enzymatic activity of DispersinB (Mean) (DispersinB [1]): 152* %

Molecule: O=C(O)CC(O)(CC(=O)O)C(=O)O [Citrate]
- % Enzyme activity (DispersinB [2]; pH 5.5): 72* %
- % Enzyme activity (DispersinB [2]; pH 5.9): 100%
- % Enzyme activity (DispersinB [2]; pH 6): 76* %
- % Enzyme activity (DispersinB [2]; pH 6.5): 53* %
- % Enzyme activity (DispersinB [2]; pH 7): 35* %
- % Enzyme activity (DispersinB [2]; pH 7.5): 21* %

Molecule: O=C(O)CN(CCN(CC(=O)O)CC(=O)O)CC(=O)O [EDTA, Ethylenediaminetetraacetic acid]
- % Activity (DispersinB [3]; Citrate buffer pH 5.9, 100 mM NaCl, EDTA 0 mg/ml): 100.00%
- % Activity (DispersinB [3]; Citrate buffer pH 5.9, 100 mM NaCl, EDTA 0.5 mg/ml): 101.45%
- % Activity (DispersinB [3]; Citrate buffer pH 5.9, 100 mM NaCl, EDTA 1 mg/ml): 95.86%
- % Activity (DispersinB [3]; Citrate buffer pH 5.9, 100 mM NaCl, EDTA 2.5 mg/ml): 104.19%
- % Activity (DispersinB [3]; Citrate buffer pH 5.9, 100 mM NaCl, EDTA 9.4 mg/ml): 83.18%
- % Activity (DispersinB [3]; Phosphate buffer pH 5.9, 100 mM NaCl, EDTA 0 mg/ml): 100.00%
- % Activity (DispersinB [3]; Phosphate buffer pH 5.9, 100 mM NaCl, EDTA 0.5 mg/ml): 102.52%
- % Activity (DispersinB [3]; Phosphate buffer pH 5.9, 100 mM NaCl, EDTA 1 mg/ml): 99.78%
- % Activity (DispersinB [3]; Phosphate buffer pH 5.9, 100 mM NaCl, EDTA 2.5 mg/ml): 91.13%
- % Activity (DispersinB [3]; Phosphate buffer pH 5.9, 100 mM NaCl, EDTA 9.4 mg/ml): 66.51%
- concentrations of EDTA that tend to reduce the enzyme activity (DispersinB [3]; citrate buffer): greater than 2.5 mg/ml
- concentrations of EDTA that tend to reduce the enzyme activity (DispersinB [3]; phosphate buffer): greater than 1 mg/ml

Molecule: OC[C@@H](O)[C@H](O)[C@@H](O)CO [xylitol, Xylitol]
- % enzymatic activity of DispersinB (Mean) (DispersinB [4]; 4° C., freshly made control without polyol = 100%, listed as 0.25% Xylitol): 98%
- % enzymatic activity of DispersinB (Mean) (DispersinB [4]; 4° C., freshly made control without polyol = 100%, listed as 0.5% Xylitol): 106%
- % enzymatic activity of DispersinB (Mean) (DispersinB [4]; 4° C., freshly made control without polyol = 100%, listed as 1% Xylitol): 97%
- % enzymatic activity of DispersinB (Mean) (DispersinB [4]; 4° C., freshly made control without polyol = 100%, listed as 2% Xylitol): 117* %
- % enzymatic activity of DispersinB (Mean) (DispersinB [4]; 4° C., freshly made control without polyol = 100%, listed as 4% Xylitol): 120* %
- % enzymatic activity of DispersinB (Mean) (DispersinB [4]; 4° C., freshly made control without polyol = 100%, listed as 6% Xylitol): 115%
- % enzymatic activity of DispersinB (Mean) (DispersinB [4]; 4° C., freshly made control without polyol = 100%, listed as 8% Xylitol): 118%
- % enzymatic activity of DispersinB (Mean) (DispersinB [4]; 4° C., freshly made control without polyol = 100%, listed as 10% Xylitol): 107%
- % enzymatic activity of DispersinB (Mean) (DispersinB [4]; 4° C., freshly made control without polyol = 100%, listed as 20% Xylitol): 91* %
- % enzymatic activity of DispersinB (Mean) (DispersinB [4]; 4° C., freshly made control without polyol = 100%, listed as 30% Xylitol): 85* %
- % enzymatic activity of DispersinB (Mean) (DispersinB [4]; 4° C., freshly made control without polyol = 100%, listed as 40% Xylitol): 86* %
- % enzymatic activity of DispersinB (Mean) (DispersinB [4]; 42° C. for 3 hours, control without polyol = 100%, listed as 0.25% Xylitol): 90%
- % enzymatic activity of DispersinB (Mean) (DispersinB [4]; 42° C. for 3 hours, control without polyol = 100%, listed as 0.5% Xylitol): 85%
- % enzymatic activity of DispersinB (Mean) (DispersinB [4]; 42° C. for 3 hours, control without polyol = 100%, listed as 1% Xylitol): 88%
- % enzymatic activity of DispersinB (Mean) (DispersinB [4]; 42° C. for 3 hours, control without polyol = 100%, listed as 2% Xylitol): 101* %
- % enzymatic activity of DispersinB (Mean) (DispersinB [4]; 42° C. for 3 hours, control without polyol = 100%, listed as 4% Xylitol): 91%
- % enzymatic activity of DispersinB (Mean) (DispersinB [4]; 42° C. for 3 hours, control without polyol = 100%, listed as 6% Xylitol): 97%
- % enzymatic activity of DispersinB (Mean) (DispersinB [4]; 42° C. for 3 hours, control without polyol = 100%, listed as 8% Xylitol): 93%
- % enzymatic activity of DispersinB (Mean) (DispersinB [4]; 42° C. for 3 hours, control without polyol = 100%, listed as 10% Xylitol): 86%
- % enzymatic activity of DispersinB (Mean) (DispersinB [4]; 42° C. for 3 hours, control without polyol = 100%, listed as 20% Xylitol): 80%
- % enzymatic activity of DispersinB (Mean) (DispersinB [4]; 42° C. for 3 hours, control without polyol = 100%, listed as 30% Xylitol): 71* %
- % enzymatic activity of DispersinB (Mean) (DispersinB [4]; 42° C. for 3 hours, control without polyol = 100%, listed as 40% Xylitol): 72* %
- % enzymatic activity of DispersinB (Mean) (DispersinB [4]; 52° C. for 3 hours, control without polyol = 100%, listed as 0.25% Xylitol): 6%
- % enzymatic activity of DispersinB (Mean) (DispersinB [4]; 52° C. for 3 hours, control without polyol = 100%, listed as 0.5% Xylitol): 7%
- % enzymatic activity of DispersinB (Mean) (DispersinB [4]; 52° C. for 3 hours, control without polyol = 100%, listed as 1% Xylitol): 9* %
- % enzymatic activity of DispersinB (Mean) (DispersinB [4]; 52° C. for 3 hours, control without polyol = 100%, listed as 2% Xylitol): 17* %
- % enzymatic activity of DispersinB (Mean) (DispersinB [4]; 52° C. for 3 hours, control without polyol = 100%, listed as 4% Xylitol): 26* %
- % enzymatic activity of DispersinB (Mean) (DispersinB [4]; 52° C. for 3 hours, control without polyol = 100%, listed as 6% Xylitol): 43* %
- % enzymatic activity of DispersinB (Mean) (DispersinB [4]; 52° C. for 3 hours, control without polyol = 100%, listed as 8% Xylitol): 53* %
- % enzymatic activity of DispersinB (Mean) (DispersinB [4]; 52° C. for 3 hours, control without polyol = 100%, listed as 10% Xylitol): 61* %
- % enzymatic activity of DispersinB (Mean) (DispersinB [4]; 52° C. for 3 hours, control without polyol = 100%, listed as 20% Xylitol): 69* %
- % enzymatic activity of DispersinB (Mean) (DispersinB [4]; 52° C. for 3 hours, control without polyol = 100%, listed as 30% Xylitol): 70* %
- % enzymatic activity of DispersinB (Mean) (DispersinB [4]; 52° C. for 3 hours, control without polyol = 100%, listed as 40% Xylitol): 68* %
- % enzymatic activity of DispersinB (Mean) (DispersinB [4]; 62° C. for 3 hours, control without polyol = 100%, listed as 8% Xylitol): 1* %
- % enzymatic activity of DispersinB (Mean) (DispersinB [4]; 62° C. for 3 hours, control without polyol = 100%, listed as 10% Xylitol): 2* %
- % enzymatic activity of DispersinB (Mean) (DispersinB [4]; 62° C. for 3 hours, control without polyol = 100%, listed as 20% Xylitol): 2* %
- % enzymatic activity of DispersinB (Mean) (DispersinB [4]; 62° C. for 3 hours, control without polyol = 100%, listed as 30% Xylitol): 3* %
- % enzymatic activity of DispersinB (Mean) (DispersinB [4]; 62° C. for 3 hours, control without polyol = 100%, listed as 40% Xylitol): 42* %

Molecule: Phosphate
- % Enzyme activity (DispersinB [2]; pH 5.5): 80* %
- % Enzyme activity (DispersinB [2]; pH 5.9): 100%
- % Enzyme activity (DispersinB [2]; pH 6): 81* %
- % Enzyme activity (DispersinB [2]; pH 6.5): 50* %
- % Enzyme activity (DispersinB [2]; pH 7): 24* %
- % Enzyme activity (DispersinB [2]; pH 7.5): 12* %

Molecule: Propylene glycol
- % enzymatic activity of DispersinB (Mean) (DispersinB [4]; 4° C., freshly made control without polyol = 100%, listed as Prop. Glycol 2.5%): 119* %
- % enzymatic activity of DispersinB (Mean) (DispersinB [4]; 4° C., freshly made control without polyol = 100%, listed as Prop. Glycol 5%): 114* %
- % enzymatic activity of DispersinB (Mean) (DispersinB [4]; 4° C., freshly made control without polyol = 100%, listed as Prop. Glycol 10%): 117* %
- % enzymatic activity of DispersinB (Mean) (DispersinB [4]; 4° C., freshly made control without polyol = 100%, listed as Prop. Glycol 20%): 124* %
- % enzymatic activity of DispersinB (Mean) (DispersinB [4]; 4° C., freshly made control without polyol = 100%, listed as Prop. Glycol 30%): 106%
- % enzymatic activity of DispersinB (Mean) (DispersinB [4]; 42° C. for 3 hours, control without polyol = 100%, listed as Prop. Glycol 2.5%): 109* %
- % enzymatic activity of DispersinB (Mean) (DispersinB [4]; 42° C. for 3 hours, control without polyol = 100%, listed as Prop. Glycol 5%): 93* %
- % enzymatic activity of DispersinB (Mean) (DispersinB [4]; 42° C. for 3 hours, control without polyol = 100%, listed as Prop. Glycol 10%): 95* %
- % enzymatic activity of DispersinB (Mean) (DispersinB [4]; 42° C. for 3 hours, control without polyol = 100%, listed as Prop. Glycol 20%): 46* %
- temperature stabilizing effect on DispersinB at elevated temperatures (DispersinB [4]; 42° C., 52° C., and 62° C.): did not exhibit temperature stabilizing effects
